One may read the IC50 as the concentration that inhibits the measured activity by half.

The text below walks through data of article PMC7394005, “Assessing the Selectivity of FXR, LXRs, CAR, and RORγ Pharmaceutical Ligands With Reporter Cell Lines” (Frontiers in Pharmacology, 2020).

Type in all cases: cell-based
One experiment has as its target T1, human RORγ (Homo sapiens, UniProt P51449).
T1 construct: RORγ (S97-K518); expressed in transfected cells; host or cells: HG5LN (HeLa cells carrying the (GAL4RE)5-βGlob-Luc-SVNeo reporter)
T1 sequence (P51449 97-518): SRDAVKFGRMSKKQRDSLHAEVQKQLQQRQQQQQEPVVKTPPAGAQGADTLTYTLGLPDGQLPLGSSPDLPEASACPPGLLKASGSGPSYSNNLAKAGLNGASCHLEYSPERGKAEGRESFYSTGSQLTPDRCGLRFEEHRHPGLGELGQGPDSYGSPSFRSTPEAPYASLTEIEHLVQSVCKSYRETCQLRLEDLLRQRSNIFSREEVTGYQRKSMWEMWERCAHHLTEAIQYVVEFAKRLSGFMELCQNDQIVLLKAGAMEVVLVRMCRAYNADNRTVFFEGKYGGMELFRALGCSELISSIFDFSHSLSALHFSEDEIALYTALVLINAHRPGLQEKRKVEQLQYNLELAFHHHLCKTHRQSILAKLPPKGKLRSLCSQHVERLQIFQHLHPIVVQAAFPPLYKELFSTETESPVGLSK
In words: HG5LN GAL4-RORγ reporter cell line, inhibition of constitutive activity. Conditions: tested alone, NE = No effect; for IC50: inhibition of constitutive activity. From the text: (§1) To construct GAL4-NR chimeras, individual LBDs of human FXR (R193-Q486), LXRα (A187-E447), LXRβ (G199-E461), CAR (M76-S348), and RORγ (S97-K518) were amplified by PCR with primers containing XhoI and SacI restriction sites (FXR), XhoI and BamHI (LXRs, CAR, RORγ) and inserted in pSG5-GAL4(DBD)-puromycin plasmid. To construct GAL4-CAR (+ APYLT) (M76-S353), the five amino acids APYLT were inserted by overlap extension PCR between amino acids P270 and D271 of CAR.
(§2) To characterize the specificity of chemicals for human FXR, LXRα, LXRβ, CAR and RORγ, we established in a similar manner HG5LN FXR, LXRα, LXRβ, CAR WT, CAR (APYLT) and RORγ reporter cell lines. […] These cells were stably transfected by pSG5-GAL4 (DBD)-NRs (LBD)-puromycin plasmid and selected in presence of 0.5 µg/ml puromycin. […] From each HG5LN NR cells, 5 to 10 clones were chosen for their ligand inducibility of luciferase expression. […] The most inducible clones were expanded and rechecked for inducibility and aliquots were frozen at different passages. One clone per receptor was maintained in culture and used for ligand screening. HG5LN cells were cultured in Dulbecco’s modified Eagle’s medium (DMEM): Nutrient Mixture F-12 (DMEM/F-12) containing phenol red and 1 g/l glucose and supplemented with 5% fetal bovine serum, 100 units/ml of penicillin, 100 µg/ml of streptomycin and 1 mg/ml geneticin, in 5% CO2 humidified atmosphere at 37°C. Stably transfected cell lines derived from HG5LN cells were cultured in the same culture medium supplemented with 0.5 µg/ml puromycin.
(§3) Individual reporter cell lines were seeded at a density of 40,000 cells per well in 96-well white opaque tissue culture plates (Greiner CellStar) in Dulbecco’s Modified Eagle Medium: Nutrient Mixture F-12 (DMEM/F-12) without phenol red and 1 g/l glucose and supplemented with 5% stripped fetal bovine serum, 100 units/ml of penicillin, 100 µg/ml of streptomycin (test medium). Chemicals to be tested were added 24h later, and cells were incubated at 37°C for 16h. Experiments were performed in quadruplicates. At the end of the incubation period, culture medium was replaced with test medium containing 0.3 mM luciferin solution. Luciferase activity was measured for 2s in intact living cells after 10 min stabilization using a Micro Beta Wallac luminometer (PerkinElmer). EC50 values were calculated using GraphPad Prism (GraphPad Software Inc).
(§4) Chemicals tested for agonism on FXR, LXRs, CAR (+ APYLT), PXR, and antagonism on CAR and RORγ were tested alone, without addition of any other ligand.
(§5) In the transactivation assay, each compound was tested at various concentrations in three independent experiments at least. For each experiment, tests were performed in quadruplicates for each concentration, and data are expressed by means values with standard deviations. Individual agonist dose–response curves, in the absence and presence of antagonist, were fitted using the sigmoid dose-response function of a graphics and statistics software program (GraphPad Prism, version 5.0). EC50 (effective concentration for half-maximal luciferase activity) and IC50 (half-maximal inhibitory concentration) values were calculated from equations used to fit the data in this graphic software. Transactivation data are presented as EC50 and IC50 values for each compound tested. To analyze significances, we compared individual compound treatments with controls using one-way analysis of variance (ANOVA) with the help of GraphPad Prism software.

The next experiment addresses T2, human LXRα (Homo sapiens, UniProt Q13133).
T2 construct: LXRα (A187-E447); expressed in transfected cells; host or cells: HG5LN (HeLa cells carrying the (GAL4RE)5-βGlob-Luc-SVNeo reporter)
T2 sequence (Q13133 187-447): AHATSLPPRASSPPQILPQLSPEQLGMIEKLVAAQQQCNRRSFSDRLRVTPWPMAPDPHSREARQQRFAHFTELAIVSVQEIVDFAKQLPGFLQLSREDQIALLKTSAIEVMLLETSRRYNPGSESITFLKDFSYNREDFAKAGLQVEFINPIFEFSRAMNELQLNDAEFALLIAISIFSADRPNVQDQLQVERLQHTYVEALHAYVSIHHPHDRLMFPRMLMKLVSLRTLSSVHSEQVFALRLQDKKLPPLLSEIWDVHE
In words: HG5LN GAL4-LXRα reporter cell line, antagonist mode in presence of T0901317. Conditions: for LXRα (T0901317 20 nM) % min act: in presence of T0901317 20 nM (80% of maximal activity), at 10^-5 M (10^-6 M *, 3 10^-6 M **).
Text: as §1, §2, §3, §4, §5

For another experiment, the target named is T3, human CAR WT (Homo sapiens, UniProt Q14994).
T3 construct: CAR (M76-S348); expressed in transfected cells; host or cells: HG5LN (HeLa cells carrying the (GAL4RE)5-βGlob-Luc-SVNeo reporter)
T3 sequence (Q14994 76-348 isoform Q14994-2): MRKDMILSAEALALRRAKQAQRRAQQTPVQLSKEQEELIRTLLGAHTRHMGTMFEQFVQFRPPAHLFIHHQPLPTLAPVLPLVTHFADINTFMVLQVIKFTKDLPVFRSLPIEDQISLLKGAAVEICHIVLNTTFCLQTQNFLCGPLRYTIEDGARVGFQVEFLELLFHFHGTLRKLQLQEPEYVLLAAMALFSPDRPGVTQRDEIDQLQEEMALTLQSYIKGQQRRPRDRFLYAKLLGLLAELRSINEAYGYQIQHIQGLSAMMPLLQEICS
Nature of the experiment: HG5LN GAL4-CAR WT reporter cell line, inhibition of constitutive activity. The conditions noted are these: for IC50: inhibition of constitutive activity; for remaining activity at 10 µM: HG5LN, read-out: CAR WT % min act.
Text: as §1, §2, §3, §4, §5

[1] abbreviates: read-out: LXRα (T0901317 20 nM) IC50, in presence of T0901317 20 nM, NE = No effect.
[2] abbreviates: tested alone, constitutive activity = 100%, at 10^-5 M (10^-6 M *, 3 10^-6 M **), NE = No effect.

Where two headings read alike, the source gives them in different places.

For the compound `CCOC(=O)Nc1ccc2c(c1)N(C(=O)CN(CC)CC)c1ccccc1CC2` [CINPA1], the IC50 against human RORγ is more than 10 µM; on human LXRα (setting [1]), more than 10 µM; against human CAR WT (tested alone, NE = No effect) it was 0.251 ± 0.015 µM. The “CAR WT % min act” value on human CAR WT (setting [2]) came to 19%.
On to `Clc1ccc(-c2nc3sccn3c2/C=N/OCc2ccc(Cl)c(Cl)c2)cc1` [CITCO], for which the IC50 against human RORγ and at human LXRα (setting [1]) was more than 10 µM each time.
Regarding `Clc1ccccc1C(c1ccccc1)(c1ccccc1)n1ccnc1` [Clotrimazole, clotrimazole], the IC50 against human RORγ and on human LXRα (setting [1]) was more than 10 µM throughout. The remaining activity at 10 µM on human CAR WT (setting [2]) stood at 64%.
As to `COc1cccc(Cn2cc(C(=O)Nc3ccc(C)c(S(=O)(=O)N4CCOCC4)c3)c(-c3ccc(C)cc3)n2)c1` [DY268], the IC50 is more than 10 µM against human RORγ; more than 10 µM on human LXRα (setting [1]); more than 10 µM on human CAR WT (tested alone, NE = No effect).
In the case of `CC(C)(C)c1nc(-c2cccc(NS(=O)(=O)c3c(F)cccc3F)c2F)c(-c2ccnc(N)n2)s1` [Dabrafenib], the IC50 was more than 10 µM against human RORγ; more than 10 µM on human LXRα (setting [1]); more than 10 µM against human CAR WT (tested alone, NE = No effect).
Turning to `COC(=O)/C=C/c1cccc(N(Cc2ccc(-c3ccc(N(C)C)cc3)cc2)C(=O)C2CCCCC2)c1` [Feraxamine], the IC50 against human RORγ is more than 10 µM; at human LXRα (setting [1]) it was more than 10 µM; at human CAR WT (tested alone, NE = No effect) it was more than 10 µM.
With `Cc1cc(C)c(S(=O)(=O)N(Cc2ccc(-c3cccc(S(C)(=O)=O)c3)cc2)Cc2ccc(C(F)(F)F)o2)c(C)c1` [GSK2033], the IC50 at human RORγ was more than 10 µM; at human CAR WT (tested alone, NE = No effect) it was 0.556 ± 0.024 µM. For the same compound, on human LXRα (NE = No effect), the “LXRα (T0901317 20 nM) % min act” value was determined as 2%. Besides, at human CAR WT, the remaining activity at 10 µM was determined as 21%.
Take `O=C(O)Cc1cccc(OCCCN(Cc2cccc(C(F)(F)F)c2Cl)CC(c2ccccc2)c2ccccc2)c1` [GW3965]: the IC50 against human RORγ was more than 10 µM; at human CAR WT (tested alone, NE = No effect), more than 10 µM.
`CC(C)c1onc(-c2c(Cl)cccc2Cl)c1COc1ccc(/C=C/c2cccc(C(=O)O)c2)c(Cl)c1` [GW4064]: the IC50 at human RORγ is more than 10 µM; on human LXRα (setting [1]), more than 10 µM; at human CAR WT (tested alone, NE = No effect), more than 10 µM.
For `Cc1oc2ccccc2c1CNC(=O)NCc1cccs1` [S07662], the IC50 against human RORγ is more than 10 µM; on human LXRα (setting [1]), more than 10 µM; against human CAR WT (tested alone, NE = No effect), 1.06 ± 0.063 µM. Also, the “CAR WT % min act” value at human CAR WT (setting [2]) was 21%.
Turning to `O=C(Nc1ccc(C(O)(C(F)(F)F)C(F)(F)F)cc1)c1ccccc1Cl` [SR0987], the IC50 on human LXRα (setting [1]) is more than 10 µM; against human CAR WT (tested alone, NE = No effect), more than 10 µM.
With `CC(=O)Nc1nc(C)c(S(=O)(=O)Nc2ccc(C(O)(C(F)(F)F)C(F)(F)F)cc2)s1` [SR1001], the IC50 against human RORγ is 7.38 ± 2.11 µM; at human LXRα (setting [1]), more than 10 µM; against human CAR WT (tested alone, NE = No effect), more than 10 µM. Besides, the “RORγ % min act” value on human RORγ (constitutive activity = 100%, at 10^-5 M (10^-6 M *, 3 10^-6 M **)) is 54%.
Turning to `O=C(Nc1ccc(C(O)(C(F)(F)F)C(F)(F)F)cc1)c1ccc(C(F)(F)F)cc1` [SR1078], the IC50 at human LXRα (setting [1]) is more than 10 µM; on human CAR WT (tested alone, NE = No effect) it was more than 10 µM.
For the compound `CCOC(=O)c1ccc(CN(Cc2ccc(-c3cccc(S(C)(=O)=O)c3)cc2)S(=O)(=O)c2c(C)cc(C)cc2C)o1` [SR9238], the IC50 is more than 10 µM at human RORγ; 0.026 ± 0.005 µM at human LXRα; more than 10 µM at human CAR WT (tested alone, NE = No effect). The “LXRα (T0901317 20 nM) % min act” value at human LXRα (NE = No effect) is recorded as 2%. Moreover, the remaining activity at 10 µM at human CAR WT was 77%.
Regarding `Cc1cc(C)c(S(=O)(=O)N(CCc2cccc(Br)c2)Cc2ccc(-c3cccc(S(C)(=O)=O)c3)cc2)c(C)c1` [SR9243], the IC50 on human RORγ was more than 10 µM; at human LXRα, 0.56 ± 0.099 µM; at human CAR WT (tested alone, NE = No effect), 8.75 ± 3.69 µM. Besides, on human LXRα (NE = No effect), the “LXRα (T0901317 20 nM) % min act” value is on record as 2%. The remaining activity at 10 µM on human CAR WT (setting [2]) came to 65%.
`CCOP(=O)(OCC)C(=Cc1cc(C(C)(C)C)c(O)c(C(C)(C)C)c1)P(=O)(OCC)OCC` [SR12813]: the IC50 was more than 10 µM against human RORγ; more than 10 µM at human LXRα (setting [1]); more than 10 µM on human CAR WT (tested alone, NE = No effect).
For the compound `Fc1ccc(-c2c3cccc(C(F)(F)F)c3nn2Cc2ccc(F)cc2Cl)cc1` [WAY252623], the IC50 was more than 10 µM against human RORγ and more than 10 µM on human CAR WT (tested alone, NE = No effect).
For SPA70, the IC50 is more than 10 µM at human RORγ; more than 10 µM at human LXRα (setting [1]); more than 10 µM against human CAR WT (tested alone, NE = No effect).
